Data on one compound can be found in patent US20230020507A1, “COMPOUND AND USE THEREOF IN TREATING AUTOIMMUNE DISEASES” (PARENCHYMA BIOTECH INC., priority 2019, published 2023).

Experiment [1] deals with IFN-γ, IL-17A, IL-1β, IL-10 and Foxp3 expression in spinal cord lesions. The experiment is described as follows: mRNA expression of inflammatory and immunomodulatory factors in spinal cord of EAE mice (real-time PCR). It counts as in vivo, mouse. As to conditions: 20 mg/kg i.p., 42nd day, compared to solvent control. An excerpt:
On the 42nd day of the experiment, the spinal cord of the mouse was excised to prepare an mRNA sample. In order to extract mRNA, the spinal cord tissue was ground with a homogenizer to obtain a homogeneous suspension. […] Then, cDNA was synthesized from the isolated RNA by reverse transcription, and the expression of inflammatory cytokines was investigated through real-time polymerase chain reaction (PCR) using iQ SYBR-Green Supermix (Bio-rad) in the CFX96 (Bio-rad) detection system. Relative values of the enzyme expression levels were compared by the ΔΔct method using GAPDH as a control enzyme. Herein, one (1) fold was set using the WT mouse spinal cord as a control.
(§1) The real-time polymerase chain reaction was implemented under the conditions of cycles at an annealing temperature of 58° C., and the following primer sequences were used.
(Quantitative PCR measures a nucleic acid by following its amplification.)

Experiment [2] deals with AOM/DSS-induced colon cancer in C57BL/6 mice. The experiment is described as follows: AOM/DSS-induced colon cancer mouse model, number of tumors per colon. It counts as in vivo. The conditions noted are these: 20 mg/kg oral daily 7th to 21st day, 93rd day, solvent control 11.33±4.33. An excerpt:
Sterile distilled water was provided for drinking from the 8th day of the experiment.

In experiment [3] the test system is C57BL/6 mice with graft-versus-host disease. The experiment can be described thus: Acute graft-versus-host disease model (allogeneic bone marrow transplantation), severity index. It counts as in vivo, mouse. The conditions noted are these: 20 mg/kg intraperitoneally daily 4 to 9 days after transplantation; 14th day after transplantation; total of 10 points; solvent control 6.20±1.20.
Procedure: The spleen of Balb/c IFN-γ knockout mouse (8 to 12 weeks old, female, 18±3 g) was excised, pulverized by adding RPMI medium, and then passed through a 40 μm cell strainer (BD Falcon), thereby obtaining a single cell suspension. The single cell suspension was centrifuged (1200 rpm, 5 minutes), and after discarding the supernatant, 1 ml of ACK (ammonium chloride/potassium bicarbonate) lysis buffer (0.15 M NH4Cl, 1 mM KHCO3, 0.1 mM Na2EDTA) was added, followed by stirring for 1 minute and then washing the same with RPMI medium.
Then, CD90.2^+ T cells were obtained from the cell suspension using Auto MACS pro (Miltenyi Biotec) (positive selection). To obtain bone marrow cells to be transplanted together with the obtained CD90.2^+ T cells, both femurs and tibias of wild-type Balb/c mice (8-12 weeks old, female, 18±3 g) were aseptically acquired. […]
Normal C57BL/6 mice (9 to 11 weeks old, female, 19±3 g) were irradiated with 850 cGy of radiation divided at an interval of 3 hours by using a radiation irradiator. […] The graft-versus-host disease severity index was evaluated at an interval of 2 days by visual observation in a severity index system that was classified into a total of 10 points with 0 to 2 points for each item including reduction of body weight, hair condition, posture, activity and skin change.

Experiment [4] concerns IL-6, IL-17A and IL-10 expression in lung tissue. The experiment can be described thus: mRNA expression of IL-6, IL-17A and IL-10 in lung tissue of GVHD mice (real-time PCR). The experiment is classed as in vivo, mouse. As to conditions: 20 mg/kg i.p., 15th day, compared to solvent control.
Excerpt: On the 15th day of the experiment, the lungs of the mice were excised to prepare an mRNA sample. In order to extract mRNA, the […] was ground with a homogenizer to obtain a homogeneous suspension. […] Then, cDNA was synthesized from the isolated RNA by reverse transcription, and the expression of inflammatory cytokines was confirmed through real-time polymerase chain reaction (PCR) using iQ SYBR-Green Supermix (Bio-rad) in the CFX96 (Bio-rad) detection system. Relative values of the enzyme expression levels were compared by the ΔΔct method using GAPDH as a control enzyme. Herein, one (1) fold was set using the normal mouse […] as a control.
as §1

In the case of `O=C(Cc1c[nH]c2ccc(Cl)cc12)Nc1ccc(Cl)c(F)n1` [Compound 26, 2-(5-chloro-1H-indol-3-yl)-N-(5-chloro-6-fluoropyridin-2-yl)acetamide], in experiment [1], the “expression level of Foxp3 in spinal cord lesions” value is listed as “significantly increased”, the “expression level of IFN-γ in the spinal cord lesion” value is “significantly reduced”, the “expression level of IL-1β in the spinal cord lesion” value is reported as “significantly reduced” and the “expression level of IL-10 in spinal cord lesions” value is given as “significantly increased”. Moreover, the “expression level of IL-17A in the spinal cord lesion” value in experiment [1] is given as “significantly reduced”. In addition, the “number of tumors in the colon” value in experiment [2] is 3.17±1.17. The “graft-versus-host disease severity index” value in experiment [3] is listed as 2.80±0.80. In experiment [4], the “expression level of IL-6 in lung tissue” value was “significantly reduced”, the “expression level of IL-10 in lung tissue” value is on record as “significantly increased” and the “expression level of IL-17A in lung tissue” value was “significantly reduced”.
